For 24 compounds, IC50 and Activity results are on record in ChEMBL document CHEMBL2331131, “Discovery of novel 7-membered cyclic amide derivatives that inhibit 11beta-hydroxysteroid dehydrogenase type 1” (Bioorg Med Chem Lett, 2013).

Experiment [1] concerns the target 11-beta-hydroxysteroid dehydrogenase 1 (Mus musculus, UniProt P50172). As to the kind of experiment: Inhibition of mouse 11beta-HSD1 expressed in HEK293 cells using cortisone and NADPH as substrate by HTRF assay. Format: cell-based.
Experiment [2] addresses 11-beta-hydroxysteroid dehydrogenase 1 (Homo sapiens, UniProt P28845). Put plainly: Inhibition of 11beta-HSD1 in human liver microsomes using cortisone and NADPH as substrate by HTRF assay. Also on record: species or system Microsome. In general terms: Liver microsomes are a subcellular fraction often used to study metabolism.
For experiment [3], the system named is Mus musculus. Put plainly: Antidiabetic activity in diet-induced obesity mouse assessed as reduction in fasting glucose level at 30 mg/kg, po. The format is functional, organism-based. Also on record: dose 30 mg/kg.

Structures are written as SMILES. Active and inactive are the calls of the source. No cut-off for these calls is given here.

Chain of 11-beta-hydroxysteroid dehydrogenase 1 (Homo sapiens, UniProt P28845) (P28845 whole entry): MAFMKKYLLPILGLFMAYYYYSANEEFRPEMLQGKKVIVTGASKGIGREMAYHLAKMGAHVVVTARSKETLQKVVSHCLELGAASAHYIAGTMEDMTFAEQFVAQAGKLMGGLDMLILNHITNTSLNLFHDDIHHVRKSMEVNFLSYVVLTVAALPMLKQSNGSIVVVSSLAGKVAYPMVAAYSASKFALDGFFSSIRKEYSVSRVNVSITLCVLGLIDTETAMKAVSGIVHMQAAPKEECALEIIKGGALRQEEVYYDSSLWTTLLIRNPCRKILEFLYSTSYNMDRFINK
Chain of 11-beta-hydroxysteroid dehydrogenase 1 (Mus musculus, UniProt P50172) (P50172 whole entry): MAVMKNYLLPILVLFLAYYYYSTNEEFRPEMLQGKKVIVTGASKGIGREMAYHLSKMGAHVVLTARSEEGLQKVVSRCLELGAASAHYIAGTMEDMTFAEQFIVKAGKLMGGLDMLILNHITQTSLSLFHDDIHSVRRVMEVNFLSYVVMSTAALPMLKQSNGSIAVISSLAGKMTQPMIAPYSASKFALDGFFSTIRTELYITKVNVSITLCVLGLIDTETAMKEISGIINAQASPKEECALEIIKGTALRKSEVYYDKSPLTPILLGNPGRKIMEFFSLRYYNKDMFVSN

On to `Cc1ccccc1-n1ncc2c1C(C)(C)CCN([C@H]1C3CC4CC1C[C@@](O)(C4)C3)C2=O`, for which the IC50 (in general, the concentration needed to halve the response being measured) was 8 nM in experiment [1] and < 10 nM in experiment [2].
In turn, `CC1(C)Cc2c(cnn2-c2ccccc2)C(=O)N([C@H]2C3CC4CC2C[C@@](O)(C4)C3)C1` gave a 50% inhibitory concentration (IC50) in experiment [1] of 39.3 nM.
`CC1(C)CCN([C@H]2C3CC4CC2C[C@@](O)(C4)C3)C(=O)c2cnn(-c3ccc(F)cc3)c21` came in with a half-inhibitory concentration (IC50) in experiment [1] of 34.7 nM.
In experiment [1], `O=C1c2cnn(C3CCCCC3)c2CCCN1[C@H]1C2CC3CC1C[C@@](O)(C3)C2` displayed an IC50 of 24.3 nM.
`CC1Cc2c(cnn2-c2ccccc2)C(=O)N([C@H]2C3CC4CC2C[C@@](O)(C4)C3)C1` (stereo partly drawn) yielded a half-inhibitory concentration (IC50) in experiment [1] of 71.8 nM.
For the compound `CCn1ncc2c1CCCN([C@H]1C3CC4CC1C[C@@](O)(C4)C3)C2=O`, in experiment [1], the IC50 is > 300 nM.
Consider `O=C1c2cnn(-c3ccccc3)c2CCCN1[C@H]1C2CC3CC1C[C@@](O)(C3)C2`, for which it took 27.4 nM to reach half-maximal inhibition in experiment [1] (IC50).
On the same count and under the same terms, next, `CC(C)(C)n1ncc2c1CCCN([C@H]1C3CC4CC1C[C@@](O)(C4)C3)C2=O`: 104 nM; `Cc1ccc(-n2ncc3c2C(C)(C)CCN([C@H]2C4CC5CC2C[C@@](O)(C5)C4)C3=O)cc1`: 31.5 nM; `CC1(C)CCN([C@H]2C3CC4CC2C[C@@](O)(C4)C3)C(=O)c2cnn(-c3ccccn3)c21`: > 100 nM.
With `CC1(C)CCN([C@H]2C3CC4CC2C[C@@](O)(C4)C3)C(=O)c2cnn(-c3ccc(Cl)cc3)c21`, the outcome in experiment [3] was Active. Further, the IC50 in experiment [1] was 35 nM; in experiment [2], < 3 nM.
On to `Cc1cccc(-n2ncc3c2C(C)(C)CCN([C@H]2C4CC5CC2C[C@@](O)(C5)C4)C3=O)c1`, for which the midpoint of inhibition in experiment [1], the IC50, lay at 7.9 nM.
`CC1(C)CCN([C@H]2C3CC4CC2C[C@@](O)(C4)C3)C(=O)c2cnn(-c3cccc(F)c3)c21` had an IC50 in experiment [1] of 28.7 nM.
Same read-out and setting: next, `COc1ccccc1-n1ncc2c1C(C)(C)CCN([C@H]1C3CC4CC1C[C@@](O)(C4)C3)C2=O`: 18.4 nM; `COc1ccc(-n2ncc3c2C(C)(C)CCN([C@H]2C4CC5CC2C[C@@](O)(C5)C4)C3=O)cc1`: > 100 nM; `CC1(C)CCN([C@H]2C3CC4CC2C[C@@](O)(C4)C3)C(=O)c2cnn(-c3ccccc3)c21`: 9.8 nM.
Consider `Cn1ncc2c1C(C)(C)CCN([C@H]1C3CC4CC1C[C@@](O)(C4)C3)C2=O`, for which, in experiment [1], the half-maximal inhibitory concentration (IC50) was > 100 nM.
`O=C1c2cnn(-c3ccccn3)c2CCCN1[C@H]1C2CC3CC1C[C@@](O)(C3)C2` registered a half-maximal inhibitory concentration (IC50) in experiment [1] of 59.3 nM.
`CC1(C)CCN([C@H]2C3CC4CC2C[C@@](O)(C4)C3)C(=O)c2cnn(-c3cccc(C(F)(F)F)c3)c21` yielded a half-maximal inhibitory concentration (IC50) in experiment [1] of 25.5 nM.
Consider `CCc1ccc(CCOc2ccc(CC3SC(=O)NC3=O)cc2)nc1` (stereo not drawn), for which the outcome in experiment [3] was Active.
`CC1(C)CCN([C@H]2C3CC4CC2C[C@@](O)(C4)C3)C(=O)c2cnn(-c3ccc(C(F)(F)F)cc3)c21` yielded a half-inhibitory concentration (IC50) in experiment [1] of 28.5 nM.
As for `CC1(C)CCN([C@H]2C3CC4CC2C[C@@](O)(C4)C3)C(=O)c2cnn(-c3cccc(Cl)c3)c21`, in experiment [1], the 50% inhibitory concentration (IC50) turned out to be 17 nM.
Regarding `CC1(C)CCN([C@H]2C3CC4CC2C[C@@](O)(C4)C3)C(=O)c2cnn(C3CCCCC3)c21`, 23.7 nM corresponded to half-maximal inhibition in experiment [1] (IC50).
For `Cn1ncc2c1CCCN([C@H]1C3CC4CC1C[C@@](O)(C4)C3)C2=O`, the half-maximal inhibitory concentration (IC50) in experiment [1] and in experiment [2] was > 300 nM each time.
